Experimental data reported in patent US20100093973A1, “POLY(AMINO ACID) COMPOUND HAVING INHIBITORY ACTIVITY ON ABSORPTION OF PHOSPHORUS AND PHOSPHORUS ABSORPTION INHIBITOR” (priority 2007, published 2010).
Where a name gives a salt, the structure may show the parent alone.

Tested on: not listed separately
Assay: in vitro
Format: cell-based
Details: not given
Description: MDCK Cells were inoculated into wells of a 96-well plate filled with D-MEM/F12 culture medium (available from GIBCO Company) supplemented with 10% FBS (available from TISSUE CULTURE BIOLOGICALS Company). After the cultivation of the cells for 3 days in a CO2 incubator, the culture medium was removed, a culture medium, in which each candidate substance (synthesized compound) had been dissolved, was added, followed by the cultivation for one day. To each well, there was added 10 μL of Cell Count Reagent SF (available from NAKARAI TESUKU K.K.), followed by the cultivation thereof for 2 hours and the subsequent determination of the absorbance observed at a wavelength of 460 nm. The IC50 values each were calculated on the basis of these measured values.

Row | Molecule | IC50 [µg/mL]
1 | NCCCC[C@H](N)C(=O)NCCCC[C@H](NC(=O)[C@@H](N)CCCCN)C(=O)NCCCNCCCCNCCCNC(=O)[C@H](CCCCNC(=O)[C@@H](N)CCCCN)NC(=O)[C@@H](N)CCCCN [Example 7, SPM(Lys)6 Hydrochloride] | > 10000

Same assay, conditions: dog

Row | Molecule | IC50 at 1 day [µg/mL]
2 | NCCCC[C@H](N)C(=O)NCCCC[C@H](N)C(=O)N(CCCCN(CCCNC(=O)[C@@H](N)CCCCN)C(=O)[C@@H](N)CCCCNC(=O)[C@@H](N)CCCCN)CCCNC(=O)[C@@H](N)CCCCN [Example 6, SPM(Lys)6 Hydrochloride] | > 10000
3 | NCCCC[C@H](NC(=O)[C@H](CCCCN)NC(=O)[C@@H](N)CCCCN)C(=O)NCCCN(CCCCN(CCCNC(=O)[C@H](CCCCN)NC(=O)[C@H](CCCCN)NC(=O)[C@@H](N)CCCCN)C(=O)[C@H](CCCCN)NC(=O)[C@H](CCCCN)NC(=O)[C@@H](N)CCCCN)C(=O)[C@H](CCCCN)NC(=O)[C@H](CCCCN)NC(=O)[C@@H](N)CCCCN [Example 20, SPM(Lys)12 Hydrochloride] | > 10000
4 | NCCCC[C@H](N)C(=O)N(CCCCN(CCCNC(=O)[C@@H](N)CCCN)C(=O)[C@@H](N)CCCCN)CCCNC(=O)[C@@H](N)CCCN [Example 13, SPM(Orn)2(Lys)2 Hydrochloride] | > 10000
5 | NCCCC[C@H](NC(=O)[C@@H](N)CCCCN)C(=O)NCCCN(CCCCN(CCCNC(=O)[C@H](CCCCN)NC(=O)[C@@H](N)CCCCN)C(=O)[C@H](CCCCN)NC(=O)[C@@H](N)CCCCN)C(=O)[C@H](CCCCN)NC(=O)[C@@H](N)CCCCN [Example 16, SPM(Lys)8 Hydrochloride] | > 10000
6 | NCCC[C@H](NC(=O)[C@H](CCCN)NC(=O)[C@@H](N)CCCN)C(=O)NCCCN(CCCCN(CCCNC(=O)[C@H](CCCN)NC(=O)[C@H](CCCN)NC(=O)[C@@H](N)CCCN)C(=O)[C@H](CCCN)NC(=O)[C@H](CCCN)NC(=O)[C@@H](N)CCCN)C(=O)[C@H](CCCN)NC(=O)[C@H](CCCN)NC(=O)[C@@H](N)CCCN [Example 28, SPM(Orn)12 Hydrochloride] | > 10000
7 | NCCCC[C@H](N)C(=O)NCCCC[C@H](NC(=O)[C@@H](N)CCCCN)C(=O)N(CCCN)CCCCN(CCCN)C(=O)[C@H](CCCCNC(=O)[C@@H](N)CCCCN)NC(=O)[C@@H](N)CCCCN [Example 12, SPM(Lys)6 Hydrochloride] | > 10000
8 | NCCCC[C@H](N)C(=O)NCCCC[C@H](N)C(=O)NCCCN(CCCCN(CCCNC(=O)[C@@H](N)CCCCNC(=O)[C@@H](N)CCCCN)C(=O)[C@@H](N)CCCCNC(=O)[C@@H](N)CCCCN)C(=O)[C@@H](N)CCCCNC(=O)[C@@H](N)CCCCN [Example 15, SPM(Lys)8 Hydrochloride] | > 10000
9 | NCCC[C@H](N)C(=O)NCCC[C@H](N)C(=O)NCCCN(CCCCN(CCCNC(=O)[C@@H](N)CCCNC(=O)[C@@H](N)CCCN)C(=O)[C@@H](N)CCCNC(=O)[C@@H](N)CCCN)C(=O)[C@@H](N)CCCNC(=O)[C@@H](N)CCCN [Example 14, SPM(Orn)8 Hydrochloride] | > 10000
10 | N=C(N)NCCC[C@H](N)C(=O)NCCCN(CCCCN(CCCNC(=O)[C@@H](N)CCCNC(=N)N)C(=O)[C@@H](N)CCCNC(=N)N)C(=O)[C@@H](N)CCCNC(=N)N [Example 5, SPM(Arg)4 Hydrochloride] | > 10000

Tested on: absorption of phosphorus
Assay: Evaluation of efficacy as phosphorus absorption inhibitors: serum radioactivity AUC (0-120 min) after oral 32P NaH2PO4 in rats, inhibitory rate
Format: in vivo
Details: rats of SD line, oral dose 50 mg/5 mL/kg, 32P NaH2PO4 given orally 5 min later, serum radioactivity AUC 0-120 min vs control
Description: Seven-week-old male rats of SD line (available from SANKYO Labo-Service Co., Ltd.), as test animals, were kept and acclimatized using the usual feed (Solid CRF-1 available from ORIENTAL Yeast Co., Ltd.) and they were used in the following tests after they were fasted overnight. Each candidate substance (synthesized compound) dissolved in distilled water for injection (Otsuka Pharmaceutical Co., Ltd.) was orally administered in a dose of 100 mg/5 mL/kg or 50 mg/5 mL/kg and after 5 minutes from the administration, 3 mg/3 mL/kg, 1 MBq/kg of an NaH2PO4 solution containing ^32P (available from PerkinElmer Company) was orally administered. Subsequently, the blood was collected with the elapse of time through the caudal vein of the test animal to thus obtain the serum thereof and the radioactivity of 40 μL of the serum was determined using a liquid scintillation counter. The inhibitory rate (%) for each candidate compound was calculated on the basis of the foregoing measured values according to the following equation: […]

Row | Molecule | 50 mg/kg Inhibition (%)
11 | TAA[(Benzoyl-4-methylene)DETA]3 Hydrochloride [Example 76] | 78%
12 | TETA(Orn)2[Dab(Dab)2]2 Hydrochloride [Example 59] | 57%
13 | TETA(Orn)2[Orn(Orn)2]2 Hydrochloride [Example 38] | 63) %
14 | TETA[Orn(Orn)2]2(Orn)2 Hydrochloride [Example 39] | 55) %
15 | TETA(PheDab)4 Hydrochloride [Example 63] | 73%
16 | TETA[PheAsp(DETA)]4 Hydrochloride [Example 74] | 79%
17 | TETA(TyrOrn)2(OrnOrn)2 TFA Salt [Example 42] | 59%
18 | TETA[Lys(Dab)2]4 TFA Salt [Example 54] | 53%
19 | TETA(OrnOrn)2(PheOrn)2 Hydrochloride [Example 50] | 79%
20 | TAA(TrpOrnDab)3 Hydrochloride [Example 61] | 70%
21 | TETA[Dab(Dab)2]4 Hydrochloride [Example 53] | 60%
22 | TETA[Phe-Orn(Orn)2]4 Hydrochloride [Example 51] | 62%
23 | TEPA(PheOrn)5 Hydrochloride [Example 64] | 87%
24 | TETA(4-NH2Bz)4(Orn)4(Orn)8 Hydrochloride [Example 62] | 66%
25 | TETA(OrnOrn)2(LeuOrn)2 Hydrochloride [Example 73] | 52%
26 | TETA(D-PheOrn)2(OrnOrn)2 Hydrochloride [Example 46] | 62%
27 | TETA(D-Phe-Orn-Orn)4 Hydrochloride [Example 55] | 85%
28 | TETA(OrnOrnOrn)2(ProOrnOrn)2 Hydrochloride [Example 65] | 57%
29 | TETA(Orn)2[Orn(Orn)2]2 TFA Salt [Example 34] | 63%
30 | TETA[Orn(Dab)2]4 TFA Salt [Example 35] | 58%
31 | TETA(LeuOrn)4 Hydrochloride [Example 75] | 55%

Row | Molecule | 50 mg/kg Inhibition (%)
32 | TETA(PheOrn(3-Ala)4 Hydrochloride [Example 68] | 73%
33 | TETA(TrpOrn)2(OrnOrn)2 Hydrochloride [Example 47] | 72%
34 | TAA[3,5-NH2Bz(Orn)2]3 Hydrochloride [Example 72] | 79%
35 | TAA(PheOrnOrn)3 Hydrochloride [Example 48] | 74%
36 | TETA(PheOrnDab)4 Hydrochloride [Example 67] | 84%
37 | TETA(OrnPheOrn)4 Hydrochloride [Example 70] | 57%
38 | TETA(Phe-αOrnOrn)4 Hydrochloride [Example 49] | 74%
39 | TETA (Trp-Orn-Dab)4 Hydrochloride [Example 56] | 71%
40 | TAA(TrpOrnOrn)3 Hydrochloride [Example 60] | 64%
41 | TETA(PheOrn)4 Hydrochloride [Example 57] | 69%
42 | TETA(OrnPheDab)4 Hydrochloride [Example 69] | 67%
43 | TETA(Phe-δOrnOrn)4 Hydrochloride [Example 40] | 76%
44 | TETA(PheOrn)2[Orn(Orn)Orn]2 Hydrochloride [Example 43] | 60%
45 | TETA(PheOrn)2(OrnOrn)2 Hydrochloride [Example 37] | 60%
46 | TAA[PheDab(Dab)2]3 Hydrochloride [Example 71] | 54%
47 | TETA[Orn(Orn)2]2(Orn)2 TFA Salt [Example 36] | 55%
48 | TETA[Orn(Dab)2]4 Hydrochloride [Example 41] | 58) %
49 | TETA(OrnOrn)2(ChaOrn)2 Hydrochloride [Example 58] | 79%
50 | TETA(ProOrnOrn)2(OrnOrnOrn)2 Hydrochloride [Example 66] | 56%
51 | TETA(Phe-δOrnOrn)5 Hydrochloride [Example 45] | 76%
52 | TETA(TyrOrn)2(OrnOrn)2 Hydrochloride [Example 52] | 59) %

Same assay, conditions: rats of SD line, oral dose 100 mg/5 mL/kg, 32P NaH2PO4 given orally 5 min later, serum radioactivity AUC 0-120 min vs control

Row | Molecule | Inhibitory Rate (%) of Phosphorus Absorption [%]
53 | SPM(Orn)8 Hydrochloride [Example 22] | 60
54 | NCCCC[C@H](N)C(=O)NCCCC[C@H](N)C(=O)N(CCCCN(CCCNC(=O)[C@@H](N)CCCCN)C(=O)[C@@H](N)CCCCNC(=O)[C@@H](N)CCCCN)CCCNC(=O)[C@@H](N)CCCCN [Example 6, SPM(Lys)6 Hydrochloride] | 30
55 | SPM(Lys)2(Orn)2 Hydrochloride [Example 10] | 30
56 | NCCCC[C@H](NC(=O)[C@H](CCCCN)NC(=O)[C@@H](N)CCCCN)C(=O)NCCCN(CCCCN(CCCNC(=O)[C@H](CCCCN)NC(=O)[C@H](CCCCN)NC(=O)[C@@H](N)CCCCN)C(=O)[C@H](CCCCN)NC(=O)[C@H](CCCCN)NC(=O)[C@@H](N)CCCCN)C(=O)[C@H](CCCCN)NC(=O)[C@H](CCCCN)NC(=O)[C@@H](N)CCCCN [Example 20, SPM(Lys)12 Hydrochloride] | 60
57 | SPM(Orn)12 Hydrochloride [Example 8] | 63
58 | NCCCC[C@H](N)C(=O)N(CCCCN(CCCNC(=O)[C@@H](N)CCCN)C(=O)[C@@H](N)CCCCN)CCCNC(=O)[C@@H](N)CCCN [Example 13, SPM(Orn)2(Lys)2 Hydrochloride] | 36
59 | SPM(Lys)9 Hydrochloride [Example 27] | 64
60 | SPM(Arg)2(Lys)2 Hydrochloride [Example 19] | 35
61 | SPM(Orn)4 Hydrochloride [Example 9] | 30
62 | NCCCC[C@H](NC(=O)[C@@H](N)CCCCN)C(=O)NCCCN(CCCCN(CCCNC(=O)[C@H](CCCCN)NC(=O)[C@@H](N)CCCCN)C(=O)[C@H](CCCCN)NC(=O)[C@@H](N)CCCCN)C(=O)[C@H](CCCCN)NC(=O)[C@@H](N)CCCCN [Example 16, SPM(Lys)8 Hydrochloride] | 49
63 | NCCC[C@H](NC(=O)[C@H](CCCN)NC(=O)[C@@H](N)CCCN)C(=O)NCCCN(CCCCN(CCCNC(=O)[C@H](CCCN)NC(=O)[C@H](CCCN)NC(=O)[C@@H](N)CCCN)C(=O)[C@H](CCCN)NC(=O)[C@H](CCCN)NC(=O)[C@@H](N)CCCN)C(=O)[C@H](CCCN)NC(=O)[C@H](CCCN)NC(=O)[C@@H](N)CCCN [Example 28, SPM(Orn)12 Hydrochloride] | 66
64 | SPM(Lys)8 Hydrochloride [Example 11] | 44
65 | NCCCC[C@H](N)C(=O)NCCCC[C@H](NC(=O)[C@@H](N)CCCCN)C(=O)N(CCCN)CCCCN(CCCN)C(=O)[C@H](CCCCNC(=O)[C@@H](N)CCCCN)NC(=O)[C@@H](N)CCCCN [Example 12, SPM(Lys)6 Hydrochloride] | 43
66 | NCCCC[C@H](N)C(=O)NCCCC[C@H](N)C(=O)NCCCN(CCCCN(CCCNC(=O)[C@@H](N)CCCCNC(=O)[C@@H](N)CCCCN)C(=O)[C@@H](N)CCCCNC(=O)[C@@H](N)CCCCN)C(=O)[C@@H](N)CCCCNC(=O)[C@@H](N)CCCCN [Example 15, SPM(Lys)8 Hydrochloride] | 33
67 | SPM(Orn)2 Hydrochloride [Example 17] | 30
68 | NCCC[C@H](N)C(=O)NCCC[C@H](N)C(=O)NCCCN(CCCCN(CCCNC(=O)[C@@H](N)CCCNC(=O)[C@@H](N)CCCN)C(=O)[C@@H](N)CCCNC(=O)[C@@H](N)CCCN)C(=O)[C@@H](N)CCCNC(=O)[C@@H](N)CCCN [Example 14, SPM(Orn)8 Hydrochloride] | 46
69 | NCCCC[C@H](N)C(=O)NCCCC[C@H](NC(=O)[C@@H](N)CCCCN)C(=O)NCCCNCCCCNCCCNC(=O)[C@H](CCCCNC(=O)[C@@H](N)CCCCN)NC(=O)[C@@H](N)CCCCN [Example 7, SPM(Lys)6 Hydrochloride] | 24
70 | N=C(N)NCCC[C@H](N)C(=O)NCCCN(CCCCN(CCCNC(=O)[C@@H](N)CCCNC(=N)N)C(=O)[C@@H](N)CCCNC(=N)N)C(=O)[C@@H](N)CCCNC(=N)N [Example 5, SPM(Arg)4 Hydrochloride] | 52
71 | SPM(Lys)2(Arg)2 Hydrochloride [Example 23] | 45
